Experimental findings from US9095535B2, “GABA release-regulating agent in cerebellum” (KOREA INSTITUTE OF SCIENCE AND TECHNOLOGY, priority 2009, dated 2015) are described below.

Holding throughout (format): cell-based
Experiment [1] relates to GABAc receptors. Kind of experiment: Patch clamp of GABAc expressing HEK293 cells challenged with 100 μM GABA. The note with it: 100 μM GABA in absence or presence of 100 μM NFA and 100 μM NPPB. The procedure: FIGS. 7a and 7b show the results when GABAc expressing HEK293 cells were patch clamped and challenged with 100 μM GABA in the absence and presence of 100 μM NFA and 100 μM NPPB; and
In FIGS. 7a and 7b, GABAc expressing HEK293 cells were patch clamped and challenged with 100 μM GABA in the absence or presence of 100 μM NFA and 100 μM NPPB.
In general terms: The patch-clamp technique gives a direct electrical read-out from membranes.

Experiment [2] addresses T1, Best1 channel (Mus musculus, UniProt O88870).
T1 construct: from tissue; host or cells: mouse cerebellar slices / sections (Bergmann glial cells)
T1 sequence (O88870 1-551): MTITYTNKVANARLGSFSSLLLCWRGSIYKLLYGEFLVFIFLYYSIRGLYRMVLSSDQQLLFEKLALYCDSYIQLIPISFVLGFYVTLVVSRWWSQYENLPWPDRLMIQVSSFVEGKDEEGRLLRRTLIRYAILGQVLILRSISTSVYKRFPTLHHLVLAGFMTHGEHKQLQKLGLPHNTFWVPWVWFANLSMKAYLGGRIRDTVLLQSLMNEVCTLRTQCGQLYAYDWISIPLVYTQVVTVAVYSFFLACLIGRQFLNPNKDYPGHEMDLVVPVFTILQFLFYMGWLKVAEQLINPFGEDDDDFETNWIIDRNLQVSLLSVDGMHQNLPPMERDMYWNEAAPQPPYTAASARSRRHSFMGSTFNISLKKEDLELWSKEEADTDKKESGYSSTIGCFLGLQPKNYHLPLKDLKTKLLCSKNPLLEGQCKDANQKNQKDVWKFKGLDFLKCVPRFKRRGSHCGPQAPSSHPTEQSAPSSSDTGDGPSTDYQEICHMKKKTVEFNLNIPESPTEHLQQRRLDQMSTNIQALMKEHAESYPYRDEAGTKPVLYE
The conditions noted are these: NPPB 50 μM; naïve GFAP-GFP mice; ramp protocol, Vh=−70 mV. How it is done:
Brain slices were prepared as described in Rossi et al., 2003. For slice recording, either approximately P28 days old or more than 8 weeks old mice were used. Animals were deeply anesthetized with halothane. After decapitation, the brain was quickly excised from the skull and submerged in ice-cold cutting solution (in mM): 250 Sucrose, 26 NaHCO3, 10 D(+)-Glucose, 4 MgCl2, 3 myo-inositol, 2.5 KCl, 2 Sodium pyruvate, 1.25 NaH2PO4, 0.5 Ascorbic acid 0.1 CaCl2, 1 Kynurenic acid, pH 7.4. All solutions were gas-treated with 95% O2-5% CO2. After trimming both sides of vermis, several parasagittal slices with […] thicknesses containing cerebellar lobes were cut using a microtome (Leica VT 1000) and transferred to extracellular ACSF solution (in mM); 126 NaCl, 24 NaHCO3, 1 NaH2PO4, 2.5 KCl, 2.5 CaCl2, 2 MgCl2, 10 D(+)-Glucose, pH 7.4. Slices were incubated for one hour at least at room temperature.
For recording, slices were transferred to an electrophysiological recording chamber (RC-26G, Warner Instruments) which is continuously superfused with ASCF (artificial cerebrospinal fluid, sigma) solution (flow rate; 2 ml/min) and controlled by flower controller (Synaptosoft) and a vacuum pump (Charles Austen, model Capex 8C). […] Fluorescence images were viewed with mercury lamp (Olympus, U-RFL-T). […]

The target of experiment [3] is T2, Best1 channel (Mus musculus, UniProt O88870).
T2 construct: mBest1 full-length fragment from pGEM-T easy plasmid (6.65 kb, Promega) was subcloned into pcDNA 3.1; expressed in transfected cells; host or cells: HEK293T (ATCC)
T2 sequence (O88870 1-551 R255K): T1 sequence (O88870 1-551) with R255K
The note with it: NPPB and NFA at 100 μM; inward current in GABAc sensor cell.
Text: For Best1 channel to mediate release of GABA, it has to permeate GABA upon channel opening. To test for GABA permeability of Best1 channel, a two-cell sniffer patch technique was developed to directly measure GABA release via Best1 channel in sensor HEK293T cells that express GABAc, and via other channels that are expressed in source HEK293T cells (FIG. 1b).
pIRES-Best1-dsRED plasmid (obtained by cloning Best1 using pIRES-dsRED (Invitrogen)) and GABAc with GFP (obtained by cloning GABAc using pcDNA3.1 (Invitrogen)) were transfected into HEK 293T cells (ATCC) using Effectene transfection reagent (Qiagen). […]
GABA release was induced by a break-though of membrane patch that goes into a whole-cell configuration in the source cell and such the released GABA was monitored and detected by a neighboring sensor cell. Full activation of GABA current was obtained by bath application of 100 μM GABA and the percentage of full activation was calculated (FIGS. 1c and 1d).
Permeated GABA is detected in sensor as an inward current (bottom traces). […] The GABA permeability of said mutant was determined by using cells obtained by transfecting said mutant into HEK293t cell (ATCC). […] The GABA permeability of said AN01 was determined by using cells obtained by transfecting said mutant into HEK293t cell (ACTT).

Where a chain is given by its changes, count along the chain named.

In the case of `O=C(O)c1cc([N+](=O)[O-])ccc1NCCCc1ccccc1` [NPPB, 5-nitro-2(3-phenylpropylamino)-benzoic acid], the “GABA response of GABAc expressing HEK293 cells” value in experiment [1] is recorded as “do not have significant impact”. Moreover, the “Anion current in Bergmann glial cells” value in experiment [2] was “decreased”. In experiment [3], the “GABA release via Best1” value is “completely abolished”.
